Results reported in US20100047321A1, “SILVER ANTIMICROBIAL COMPOSITION AND USE” (priority 2008, published 2010).

Legend:
[1] = pKa of additive
From the text: The storage stability additives used in the compositions of this invention are N-heterocyclic acids each having a pKa of from about 4 to about 9 or from about 4.5 to about 8.5, or from about 4.8 to about 8.0.

[2] = Settling test of redispersed aqueous silver chloride/gelatin dispersion (silver assay of top samples); assay type: physicochemical; settings: redispersal and testing after storage at 40° C. for 5 days
Method: Samples were analyzed for silver content using an Automated Thioacetamide Titration system (ATT) to assay silver ion (Ag^+) present in silver containing compounds by a potentiometric titration. Silver chloride grains, which have been solubilized in a solution of thiosulfate, sodium hydroxide and gelatin, are titrated with thioacetamide to precipitate silver sulfide. The end-point of the titration is monitored potentiometrically using a silver sulfide-coated silver billet indicator electrode.
[…] To test for settling, the stirring was stopped and a 10 ml portion was removed from the top of the aliquot (time=0 sample).
Additional samples were taken in a similar manner from the unstirred aliquot at 10 minute, 30 minute, and 60 minute intervals. By comparing the theoretical silver chloride concentration (measured on a sample taken from the vigorously stirred dispersion at the conclusion of the precipitation), assuming a perfectly dispersed solution, with that determined by the ATT assay for each sample taken from the top of the aliquot, it is possible to determine the amount of AgCl product that had settled in a given time interval.
The following TABLE I contains the settling data for Invention Examples 1-7 and Comparative Examples 1-10. The settling is evaluated by comparing the silver assay results for samples taken from the top of the aliquot at time=0 or later, to the theoretical silver concentration, such that percent settle is defined by the expression (Theoretical [Ag]−Silver Assay(time))/(Theoretical [Ag]))×100.

pKa [1] | Effectiveness of additive in reducing settling [2] | Compound | Additive pKa [1]
3.3 | ineffective | CC(=O)Nc1cccc(-n2[nH]nnc2=S)c1 [APMT, acetamide, N-(3-(2,5-dihydro-5-thioxo-1H-tetrazol-1-yl)phenyl)-, reference compound] | 
4.8 | remarkably effective | Cc1nc2ncnn2c(O)c1Br [Br-TAI, (1,2,4)triazolo(1,5-a)pyrimidin-7-ol, 6-bromo-5-methyl-] | 
6 | remarkably effective | O=[N+]([O-])c1cc(Cl)cc2[nH]nnc12 [CN-BZT, 6-chloro-4-nitro-1H-benzotriazole] | 
6.2 | remarkably effective | CSc1nc2nc(C)cc(O)n2n1 [SMe-TAI, (1,2,4)triazolo(1,5-a)pyrimidin-7-ol, 5-methyl-2-(methylthio)-] | 
9.4 | ineffective | O=C1CCC(=O)N1 [Succinimide, succinimide, reference compound] | 
6.2 | remarkably effective | Cc1cc(O)n2ncnc2n1.[Na] [TAI, (1,2,4)triazolo(1,5-a)pyrimidin-7-ol, 5-methyl-, sodium salt] | 
9.2 | ineffective | O=c1cc[nH]c(=O)[nH]1 [Uracil, uracil, reference compound] | 
5.8 | remarkably effective | O=c1[nH][nH]c(=O)[nH]1 [Urazole, urazole] | 
5.8 | remarkably effective | O=c1[nH]c(=O)c2[nH]c(=O)[nH]c2[nH]1 [Uric acid, uric acid] | 

Compound | pKa [1] | Effectiveness of additive in reducing settling [2] | Additive pKa [1]
O=C1NS(=O)(=O)c2ccccc21 [Saccharin, saccharin, reference compound] | 1.8 | ineffective | 1.8
methyl-1H-benzotriazole [Me-BZT] |  | remarkably effective | 
